The source of these data is patent publication US7250410B2, “Cyclic nucleotide phosphodiesterase inhibitors, preparation and uses thereof” (Via Pharmaceuticals, Inc., priority 2001, dated 2007).

By IC50 is commonly meant the concentration that inhibits the measured activity by half. The low end stands for greater potency in that assay, the high end for weaker potency in that assay.

One test concerns the target PDE4. Put plainly: Inhibition of PDE4, radioenzymatic phosphodiesterase assay. It counts as biochemical, bovine. The settings on record: Table 1, formula (III); 1 μM cyclic AMP. As to the method:
A 3 g segment of bovine aortic media cut into pieces with scissors was homogenized with an ultra-turrax then a potter glass/glass homogenizer in 7 volumes by weight of buffer A containing a protease inhibitor cocktail (20 mM Tris-HCl, 0.25 M saccharose, 2 mM magnesium acetate, 1 mM dithiothreitol, 5 mM EGTA, 2000 U/ml aprotinin, 10 mg/l leupeptin and 10 mg/l soya trypsic inhibitor). The homogenizate was centrifuged at 105,000 g for 1 hour. […] The column was washed until there was no detectable absorption at 280 nm, then eluted with a linear gradient of NaCl (0–0.5 M) in buffer B. 3-ml fractions were collected and enzyme activity was determined under the conditions described hereinafter to localize the different enzymes PDE1, PDE3, PDE4 and PDE5, which were aliquoted and frozen at −80° C.
The nucleoside formed was separated from the nucleotides by anion exchange chromatography. Nucleoside radioactivity was determined by liquid scintillation counting.
Compound `COc1cc2c(cc1OC)C(c1cccc3ccccc13)=NN(C)C(=O)C2` [IIIaa, 7,8-dimethoxy-3-methyl-1-(1-naphthyl)-3,5-dihydro-4H-2,3-benzodiazepin-4-one] registered a half-inhibitory concentration (IC50) of 9.3 µM.

On to `COc1cc2c(cc1OC)C(c1ccc(-c3ccc(C(C)=O)cc3)cc1)=NN(C)C(=O)C2` [IIIal, 1-[4-(4-acetylphenyl)phenyl]-7,8-dimethoxy-3-methyl-3,5-dihydro-4H-2,3-benzodiazepin-4-one], for which the 50% inhibitory concentration (IC50) was 2.4 µM.

`COc1cc2c(cc1OC)C(c1ccc(-c3cccc(C(F)(F)F)c3)cc1)=NN(C)C(=O)C2` [IIIap, 1-[4-[3-(trifluoromethyl)phenyl]phenyl]-7,8-dimethoxy-3-methyl-3,5-dihydro-4H-2,3-benzodiazepin-4-one] yielded a concentration for half-maximal inhibition (IC50) of 1.9 µM. This IC50 and that of the compound before are within 1.5-fold of each other.

`COc1cc2c(cc1OC)C(c1ccc(-c3cccc(C)c3)cc1)=NN(C)C(=O)C2` [IIIar, 7,8-dimethoxy-3-methyl-1-[4-(3-methylphenyl)phenyl]-3,5-dihydro-4H-2,3-benzodiazepin-4-one] came in with an IC50 of 2.9 µM.

The same test, now with this note: Table 1, formula (III); compound at 10 μM.
`COC(=O)CCCCCCCCCCCN1N=C(c2ccccc2)c2cc(OC)c(OC)cc2CC1=O` [IIIae, 7,8-dimethoxy-3-(12-methoxy-12-oxododecyl)-1-phenyl-3,5-dihydro-4H-2,3-benzodiazepin-4-one]: the “PDE4 percentage inhibition at 10 μM” value is recorded as 19%.

Staying with this test, now noted: Table 2, formula (XXII); 1 μM cyclic AMP.
Consider `COc1cc2c(cc1OC)C(c1ccc(Br)cc1)=NCC(=O)N2` [XXIIaf, 5-(4-bromophenyl)-7,8-dimethoxy-1,3-dihydro-2H-1,4-benzodiazepin-2-one], for which half-maximal inhibition (IC50) required 15 µM. That is a double-digit micromolar value.

Staying with this test, now noted: Table 2, formula (XXII); compound at 10 μM.
Turning to `COc1cc2c(cc1OC)C(c1ccccc1)=N[C@@H](CCCCNC(C)=O)C(=O)N2` [XXIIax, (S)-N-[4-(7,8-dimethoxy-2-oxo-5-phenyl-2,3-dihydro-1H-1,4-benzodiazepin-3-yl)butyl]acetamide], the “PDE4 percentage inhibition at 10 μM” value is reported as 6%.

With `COc1cc2c(cc1OC)C(c1ccccc1)=N[C@@H](Cc1ccccc1)C(=O)N2` [XXIIau, (S)-3-benzyl-7,8-dimethoxy-5-phenyl-1,3-dihydro-2H-1,4-benzodiazepin-2-one], the “PDE4 percentage inhibition at 10 μM” value turned out to be 42.6%.

In the case of `COc1ccc2c(c1)NC(=O)CN=C2c1ccccc1` [XXIIan, 8-methoxy-5-phenyl-1,3-dihydro-2H-1,4-benzodiazepin-2-one], the “PDE4 percentage inhibition at 10 μM” value is on record as 12.1%.

As to `COc1cc2c(cc1OC)C(c1ccccc1)=N[C@@H](CCCCN)C(=O)N2` [XXIIaw, (S)-3-(4-aminobutyl)-7,8-dimethoxy-5-phenyl-1,3-dihydro-2H-1,4-benzodiazepin-2-one], the “PDE4 percentage inhibition at 10 μM” value came out at 4%.

Regarding `COc1cc2c(cc1OC)C(c1ccccc1)=NCC(=O)N2` [XXIIaa, 7,8-dimethoxy-5-phenyl-1,3-dihydro-2H-1,4-benzodiazepin-2-one], the “PDE4 percentage inhibition at 10 μM” value is reported as 25.8%.

With `COc1cc2c(cc1OC)C(c1ccccc1)=NC(Cc1c[nH]c3ccccc13)C(=O)N2` (stereo not drawn) [XXIIas, 7,8-dimethoxy-3-(1H-indol-3-ylmethyl)-5-phenyl-1,3-dihydro-2H-1,4-benzodiazepin-2-one], the “PDE4 percentage inhibition at 10 μM” value is 41.3%.

The test is the same for the next values; noted with them: Table 3, formula (II); 1 μM cyclic AMP.
For `COc1cc2c(cc1OC)N(C)C(=O)CN=C2/C=C/c1ccccc1` [IIas, 7,8-dimethoxy-1-methyl-5-[(E)-2-phenylethenyl]-1,3-dihydro-2H-1,4-benzodiazepin-2-one], half-maximal inhibition (IC50) was put at 8.4 µM.

In the case of `CCN1C(=O)CN=C(c2cccc(Br)c2)c2cc(OC)c(OC)cc21` [IIbm, 5-(3-bromophenyl)-1-ethyl-7,8-dimethoxy-1,3-dihydro-2H-1,4-benzodiazepin-2-one], the IC50 worked out at 7.3 µM.

In the case of `CCN1C(=O)C(Cc2cccc(Br)c2)N=C(c2ccccc2)c2cc(OC)c(OC)cc21` (stereo not drawn) [IIcj, 3-(3-bromobenzyl)-1-ethyl-7,8-dimethoxy-5-phenyl-1,3-dihydro-2H-1,4-benzodiazepin-2-one], the half-inhibitory concentration (IC50) turned out to be 3.76 µM.

As to `CCN1C(=O)C(Cc2ccccc2[N+](=O)[O-])N=C(c2ccccc2)c2cc(OC)c(OC)cc21` (stereo not drawn) [IIbh, 7,8-dimethoxy-1-ethyl-3-(2-nitrobenzyl)-5-phenyl-1,3-dihydro-2H-1,4-benzodiazepin-2-one], half-maximal inhibition (IC50) was put at 2.4 µM.

`CCN1C(=O)C(Cc2cccc(C(F)(F)F)c2)N=C(c2ccccc2)c2cc(OC)c(OC)cc21` (stereo not drawn) [IIdb, 1-ethyl-7,8-dimethoxy-5-phenyl-3-[3-(trifluoromethyl)benzyl]-1,3-dihydro-2H-1,4-benzodiazepin-2-one] gave a 50% inhibitory concentration (IC50) of 23 µM.

Compound `CCN1C(=O)CN=C(c2ccc(Br)cc2)c2cc(OC)c(OC)cc21` [IIbl, 5-(4-bromophenyl)-1-ethyl-7,8-dimethoxy-1,3-dihydro-2H-1,4-benzodiazepin-2-one] came in with a half-maximal inhibitory concentration (IC50) of 15 µM.

`CCN1C(=O)C(Cc2cccc(C(N)=O)c2)N=C(c2ccccc2)c2cc(OC)c(OC)cc21` (stereo not drawn) [IIcs, 3-[(1-ethyl-7,8-dimethoxy-2-oxo-5-phenyl-2,3-dihydro-1H-1,4-benzodiazepin-3-yl)methyl]benzamide] showed an IC50 of 1.25 µM.

Compound `CCN1C(=O)C(Cc2ccccc2C)N=C(c2ccccc2)c2cc(OC)c(OC)cc21` (stereo not drawn) [IIcz, 1-ethyl-7,8-dimethoxy-3-(2-methylbenzyl)-5-phenyl-1,3-dihydro-2H-1,4-benzodiazepin-2-one] yielded a concentration for half-maximal inhibition (IC50) of 4.4 µM.

Compound `CCN1C(=O)CN=C(c2ccc(-c3ccccc3)cc2)c2cc(OC)c(OC)cc21` [IIbp, 5-(1,1′-biphenyl-4-yl)-1-ethyl-7,8-dimethoxy-1,3-dihydro-2H-1,4-benzodiazepin-2-one] returned an IC50 of 5.74 µM.

In turn, `CCN1C(=O)C(Cc2ccccc2CN)N=C(c2ccccc2)c2cc(OC)c(OC)cc21` (stereo not drawn) [IIcg, 3-(2-aminomethylbenzyl)-7,8-dimethoxy-1-ethyl-5-phenyl-1,3-dihydro-2H-1,4-benzodiazepin-2-one] returned a 50% inhibitory concentration (IC50) of 6.7 µM.

`COc1ccc(C2=NCC(=O)N(C)c3cc(OC)c(OC)cc32)cc1` [IIaw, 7,8-dimethoxy-5-(4-methoxyphenyl)-1-methyl-1,3-dihydro-1,4-benzodiazepin-2-one] showed an IC50 of 10 µM.

Consider `COc1cc2c(cc1OC)N(C)C(=O)CN=C2c1ccc(Br)cc1` [IIba, 5-(4-bromophenyl)-7,8-dimethoxy-1-methyl-1,3-dihydro-2H-1,4-benzodiazepin-2-one], for which inhibition was half-maximal at 17 µM (IC50). This IC50 lies about 1.7-fold higher than the previous one.

Regarding `CCN1C(=O)C(Cc2ccccc2OC)N=C(c2ccccc2)c2cc(OC)c(OC)cc21` (stereo not drawn) [IIcr, 1-ethyl-7,8-dimethoxy-3-(2-methoxybenzyl)-5-phenyl-1,3-dihydro-2H-1,4-benzodiazepin-2-one], half-maximal inhibition (IC50) was put at 2.7 µM. Against the preceding compound, the IC50 is about 6.3-fold lower.

In turn, “[(7,8-dimethoxy-1-ethyl-2-oxo-2,3-dihydro-1H-1,4-benzodiazepin-3-yl)benz-2-yl]carboxamide [IIci]” displayed a half-inhibitory concentration (IC50) of 1.45 µM.

Still in this test, the particulars now being: Table 3, formula (II); compound at 10 μM.
Turning to `CCN1C(=O)C(C(Cc2ccc(Br)cc2)c2ccc(Br)cc2)N=C(c2ccccc2)c2cc(OC)c(OC)cc21` (stereo not drawn) [IIde, 3-[1,2-bis(4-bromophenyl)ethyl]-1-ethyl-7,8-dimethoxy-5-phenyl-1,3-dihydro-2H-1,4-benzodiazepin-2-one], the “PDE4 percentage inhibition at 10 μM” value is 0%.

Turning to `COc1ccc(C2=NCC(=O)N(C)c3cc(OC)c(OC)cc32)cc1OC` [IIab, 7,8-dimethoxy-5-(3,4-dimethoxyphenyl)-1-methyl-1,3-dihydro-1,4-benzodiazepin-2-one], the “PDE4 percentage inhibition at 10 μM” value is listed as 38%.

As to `CCN1C(=O)C(Cc2cc(Br)cc(Br)c2)N=C(c2ccccc2)c2cc(OC)c(OC)cc21` (stereo not drawn) [IIbx, 3-(3,5-dibromobenzyl)-7,8-dimethoxy-1-ethyl-5-phenyl-1,3-dihydro-2H-1,4-benzodiazepin-2-one], the “PDE4 percentage inhibition at 10 μM” value is 18%.

Consider `CCN1C(=O)C(Cc2ccc(-c3ccccc3)cc2)N=C(c2ccccc2)c2cc(OC)c(OC)cc21` (stereo not drawn) [IIck, 3-(1,1′-biphenyl-4-ylmethyl)-1-ethyl-7,8-dimethoxy-5-phenyl-1,3-dihydro-2H-1,4-benzodiazepin-2-one], for which the “PDE4 percentage inhibition at 10 μM” value is on record as 32.2%.

Take `COc1cc2c(cc1OC)N(C)C(=O)CN=C2c1ccc(N(C)C)cc1` [IIaj, 7,8-dimethoxy-5-(4-N,N-dimethylaminophenyl)-1-methyl-1,3-dihydro-2H-1,4-benzodiazepin-2-one]: the “PDE4 percentage inhibition at 10 μM” value was determined as 7.9%.

For `CCN1C(=O)C(CC(N)=O)N=C(c2ccccc2)c2cc(OC)c(OC)cc21` (stereo not drawn) [IIcw, 2-(1-ethyl-7,8-dimethoxy-2-oxo-5-phenyl-2,3-dihydro-1H-1,4-benzodiazepin-3-yl)acetamide], the “PDE4 percentage inhibition at 10 μM” value came to 9.4%.

As for `COc1cc2c(cc1OC)N(C)C(=O)CN=C2c1ccc(F)cc1` [IIad, 7,8-dimethoxy-5-(4-fluorophenyl)-1-methyl-1,3-dihydro-2H-1,4-benzodiazepin-2-one], the “PDE4 percentage inhibition at 10 μM” value amounted to 23%.

Regarding `COc1cc2c(cc1OC)N(CCO)C(=O)CN=C2c1ccccc1` [IIcx, 7,8-dimethoxy-1-(2-hydroxyethyl)-5-phenyl-1,3-dihydro-2H-1,4-benzodiazepin-2-one], the “PDE4 percentage inhibition at 10 μM” value was determined as 9.9%.

In the case of `CCN1C(=O)CN=C(c2ccccc2)c2cc(O)c(O)cc21` [IIbk, 1-ethyl-7,8-dihydroxy-5-phenyl-1,3-dihydro-2H-1,4-benzodiazepin-2-one], the “PDE4 percentage inhibition at 10 μM” value is listed as 14.2%.

Still in this test, the particulars now being: Table 3, formula (II); compound at 10 μM; 10 µM.
For the compound `CCN1C(=O)C(Cc2ccc(Cl)cc2)N=C(c2ccccc2)c2cc(OC)c(OC)cc21` (stereo not drawn) [IIbq, 3-(4-chlorobenzyl)-1-ethyl-7,8-dimethoxy-5-phenyl-1,3-dihydro-2H-1,4-benzodiazepin-2-one], the “PDE4 percentage inhibition at 10 μM” value is 33.8%.
